Test results as given in patent US8263576B2, “Non-natural sphingolipid analogs and uses thereof” (Mayo Foundation for Medical Education and Research, priority 2006, dated 2012).

Legend:
[1] = tested on: clathrin-dependent endocytosis; experiment: Internalization route of BODIPY-LacCer stereoisomers; assay type: cell-based; conditions: data not shown
[2] = tested on: clathrin-dependent endocytosis; conditions: Singh et al., J. Biol. Chem. 2006; cited from earlier work
rat fibroblasts = experiment: Inhibition of lipid analog endocytosis by biochemical treatments in rat fibroblasts; assay type: cell-based
Source text: To define the molecular features of GSL analogs and their ability to selectively internalize by caveolar endocytosis, the structure of the natural D-erythro-LacCer compound was modified (Singh, R. D., et al. Mol. Biol. Cell, 2003, 14, 3254). The modifications included those to the structure of the fluorescent lipid through variations to its carbohydrate headgroup, chain length of the sphingosine base, or chain length of the fluorescent fatty acid (see FIG. 6). Tests were designed to test initial internalization and sensitivity to inhibitor treatments.
To investigate the structural determinants of GSLs that result in selective internalization via caveolae, the structure of the fluorescent GSL analogs were systematically varied (see FIG. 6) and examined to determine the effect of these variations on the mechanism of analog internalization. To examine the significance of the carbohydrate head group, the fluorescent analogs of GalCer, globoside, GM1, LacCer, MalCer, and sulfatide were used. For each of these fluorescent GSL analogs, the fluorescent fatty acid and sphingosine base were identical (n′=3, n=7; FIG. 6A). Rat fibroblasts (RFs) were incubated with each analog in the presence or absence of various inhibitors to differentiate clathrin-dependent from clathrin-independent endocytosis, and the amount of internalization (at 5 min) was quantified by image analysis.
A control experiment was carried out exactly as above, except that BODIPY-LacCer was introduced into cells from an ethanolic solution rather than from a BSA complex.
Furthermore, the importance of hydrophobicity on the mechanism of GSL endocytosis was examined. For these studies, the BODIPY-LacCer analogs that were used varied the chain length of the sphingosine base (C12 to C20), or fatty acid (C3 vs. C5 spacer) (n=1, 5, 7, or 9; n′=1 or 3; FIG. 6A).
Finally, a comparison between NBD-LacCer and NBD-D-PC (see FIG. 6B)was made to study the possible influence of the lipid backbone (ceramide vs. glycerol) on the internalization mechanism.

src kinase = experiment: src phosphorylation (Y416) immunoblot in HSFs; assay type: cell-based, human; conditions: for src activation (phosphorylation at Y416), lipid alone: 30 min at 10° C., then 30 sec at 37° C.; for src phosphorylation induced by β1-stim Ab: cells pretreated with lipid, data not shown
Experimental: HSFs were treated with C8-DE-LacCer (±PP2), C8-LT-LacCer, PDGF, or with β1 stim Ab±LacCer isomers. Samples were warmed for 30 sec at 37° C., lysed, and the cell lysates blotted for src and phosphor-Src (Y416).
Cells were incubated for 30 min at 10° C.± the LacCer stereoisomers and/or the β1-stim Ab followed by a 30 sec incubation at 37° C. Cell lysates were then immunoblotted for src and phospho-(Y416) src.

[3] = tested on: PM domains enriched in GM1 ganglioside; experiment: PM microdomain clustering induced by CtxB and anti-CtxB Ab in HSFs; assay type: cell-based, human; conditions: HSFs pretreated with lipid 30 min at 10° C.
Source text: (§1) PM domains enriched in GM1 ganglioside (A,B) or cholesterol (C) were visualized using fluorescent CtxB or BC-⊖, respectively. Clustering of these probes was induced using an anti-CtxB Ab or SV40. Note the inhibition of microdomain clustering when cells were pretreated with C8-LT-LacCer, compared to untreated control samples. (A), HSFs; (B,C) CV1 cells. Bars, 10 μm.
A potential mechanism for C8-LT-LacCer inhibition of caveolar endocytosis, namely disruption of PM microdomain formation, was explored. This mechanistic possibility was tested through incubation of cells with AF594-CtxB at 10° C. to label […] at the PM, followed by an anti-Ctx-B IgG.

SV40 virus [4] = experiment: SV40 infection of CV1 cells (large T antigen expression); assay type: cell-based, monkey; conditions: CV1 cells pretreated with lipid and SV40 at low temperature, then 37° C. for 14 hrs
human eosinophils [5] = experiment: Eosinophil superoxide generation (cytochrome c reduction); assay type: cell-based; conditions: versus medium alone, 37° C., up to 4 h
Experimental: Human eosinophils were purified from normal individuals or patients with mild allergy by Percoll density gradient centrifugation and magnetic cell sorting using MACS anti-CD16 microbeads as described by Hansel T. T., et al., J. Immunol. Methods 1991, 145, 105. Briefly, after peripheral blood was overlaid on an isotonic Percoll solution (1.084 g.ml, Sigma), the blood was centrifuges at 1000×g for 30 min at 4° C. Mononuclear cells at the interface were removed, and erythrocytes in sediment were lysed by two cycles of hypotonic water lysis. […] The purity of eosinophils counted by Randolph's stain was >98%. […]
Superoxide anion generation and degranulation by human eosinophils were used as readouts of eosinophils functions in response to proteases or synthetic PAR activating peptides. Generation of superoxide by eosinophils was measured by superoxide dismutase-inhibitable reduction of cytochrome c as previously described with slight modifications. […] Immediately after addition of stimuli, the reaction wells were measured for absorbance at 550 nm in a microplate autoreader (Thermomax, Molecular Devices, Menlo Park, Calif.), followed by repeated readings. Between absorbance measurements, the plate was incubated at 37° C. […] To quantitate eosinophils degranulation, the concentrations of eosinphil-derived neutrotoxin (EDN) in the sample supernatants were measure by specific RIA.

human eosinophils [6] = experiment: Eosinophil adhesion to tissue culture wells; assay type: cell-based
[7] = tested on: caveolar endocytosis in HSFs; experiment: Uptake of endocytic markers in human skin fibroblasts (fluorescence microscopy); assay type: cell-based; conditions: HSFs treated 30 min at 10° C. with lipid, pulse labeled, 5 min at 37° C.
Experimental: HSFs were either untreated (Control) or treated for 30 min at 10° C. with D-erythro or L-threo-C8-LacCer, and then pulse labeled with fluorescent albumin or β1-integrin Fab (caveolar markers), Tfn (clathrin marker), dextran (fluid phase marker), or anti-IL2R Fab (for RhoA pathway). After 5 min at 37° C., cells were acid-stripped to remove non-internalized marker and images were acquired by fluorescence microscopy (A) and quantified (B). At least 20 cells for each condition were analyzed in multiple experiments. Bar, 10 μm.
The non-natural (L-threo; LT) isomers of C8-LacCer and BODIPY-LacCer were synthesized. The latter was synthesized by the method detailed in Liu, Y., et al. Chem. Phys. Lipids, 2006, 142, 58 (referred to as Liu). C8-LT-LacCer was prepared through a modification of the methods used in Liu, where an activated for of octanoic acid was used in place of BODIPY-C5-NHS. HSFs were then either untreated (Control) or treated for 30 min at 10° C. with D-erythro (DE) or L-threo (LT) C8-LacCer, and then pulse labeled with fluorescent albumin or anti-β1-integrin Fab (caveolar markers), Tfn (clathrin marker), dextran (fluid phase marker), or anti-IL2R Fab (for RhoA pathway). After 5 min at 37° C., cells were acid-stripped to remove non-internalized marker and images were acquired by fluorescence microscopy (A) and quantified (B). At least 20 cells for each condition were analyzed in multiple experiments. Bar, 10 μm.

β1-integrin = target: T1, β1-integrin (Homo sapiens, UniProt P05556); experiment: β1-integrin activation in HSFs (HUTS-4 Ab binding); assay type: cell-based; conditions: for HUTS binding (β1-integrin activation), agent alone: HSFs, lipid in the absence of β1-stim Ab, or β1-stim Ab alone
T1 construct: endogenous in cells; host or cells: human skin fibroblasts (HSFs)
T1 sequence (P05556 21-798): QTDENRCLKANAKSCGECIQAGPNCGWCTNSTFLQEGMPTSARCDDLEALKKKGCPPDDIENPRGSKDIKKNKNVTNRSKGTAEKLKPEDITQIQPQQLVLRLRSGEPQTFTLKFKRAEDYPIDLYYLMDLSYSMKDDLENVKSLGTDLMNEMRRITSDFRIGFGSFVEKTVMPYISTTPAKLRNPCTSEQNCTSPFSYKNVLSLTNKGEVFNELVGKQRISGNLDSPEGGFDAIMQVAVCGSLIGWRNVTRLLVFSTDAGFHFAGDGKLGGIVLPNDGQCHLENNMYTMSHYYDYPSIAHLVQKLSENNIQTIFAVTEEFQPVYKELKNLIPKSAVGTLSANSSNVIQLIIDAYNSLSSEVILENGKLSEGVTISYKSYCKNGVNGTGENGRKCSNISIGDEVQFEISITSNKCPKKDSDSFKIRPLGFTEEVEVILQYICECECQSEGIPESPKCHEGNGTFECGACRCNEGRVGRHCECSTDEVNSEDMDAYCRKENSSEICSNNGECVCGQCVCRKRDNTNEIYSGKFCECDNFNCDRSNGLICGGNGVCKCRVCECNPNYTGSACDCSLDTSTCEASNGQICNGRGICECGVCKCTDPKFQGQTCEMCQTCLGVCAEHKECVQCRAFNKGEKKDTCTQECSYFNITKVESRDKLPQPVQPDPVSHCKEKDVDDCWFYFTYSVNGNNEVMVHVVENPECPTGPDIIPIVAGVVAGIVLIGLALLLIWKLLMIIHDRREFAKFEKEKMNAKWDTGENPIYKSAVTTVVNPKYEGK
Experimental: FIG. 4a: HSFs were serum-starved for 2-3 hrs and then either untreated (panel 1, Control) or incubated with a stimulating β1-integrin IgG (panel 2; β1-stim) or with the LacCer isomers (panels 3 & 4) for 30 min at 10° C. All samples were then warmed for 30 sec at 37° C., fixed and stained with HUTS-4 Ab that recognizes β1-integrin in its active conformation. Note the absence of β1-integrin activation in cells pretreated with C8-LT-LacCer. Quantitation in FIG. 4b was by image analysis (n≧10 cells/condition; 3 independent experiments). Bars, 10 μm.
A further mechanistic possibility by which C8-LT-LacCer might inhibit caveolar internalization is by disruption transmembrane signaling events required for endocytosis. […] The first examination involved the activation of β1-integrin in HSFs following crosslinking with a stimulatory Ab (β1-stim Ab) using the HUTS-4 Ab which only binds to β1-integrins in their activated conformation (see, e.g., Luque, A. et al., J. Biol. Chem. 1996, 271, 11067).

[8] = tested on: PM domains enriched in GM1 ganglioside; conditions: Singh et al., 2006, submitted; cited from earlier work
[9] = tested on: PM domains enriched in GM1 ganglioside and cholesterol; experiment: SV40-induced PM domain formation in CV1 cells; assay type: cell-based, monkey; conditions: CV1 cells pretreated with lipid, low temperature
Source text: as §1

SV40 virus [10] = experiment: SV40 binding to CV1 cells (anti-SV40 VP1 MAb); conditions: lipid and SV40 at low temperature
Experimental: (A, B) CV1 cells were incubated LacCer stereoisomers for 30 min at 10° C., and then coincubated for 1 hr at 10° C. with SV40 virus (MOI=15). Samples were washed, incubated for 40 hrs in complete medium, fixed, permeabilized, and stained for the Large T antigen. Values in (B) are mean ±SD (n≧50 cells/condition; three independent experiments). (C, D) CVI cells were treated with SV40 for 1 hr as in (A,B) and SV40 binding to live cells was detected using anti-SV40 VP1 MAb. Values in D are mean ±SD (n≧20 cells from two independent experiments).
Cells were treated with the C8-LT-LacCer isomer and SV40 at low temperature, washed, and then incubated with a monoclonal antibody to the SV40 major capsid protein VP1.

**Q.** With “C5-BODIPY-L-threo-lactosylceramide [BODIPY-LT-LacCer]” as the molecule, how does the “fraction internalized by clathrin-dependent endocytosis” value [1] read?
**A.** Its value is 65-70%.

**Q.** Which internalization route [2] does the source give for `CCCCCCCCCCCCC/C=C/[C@@H](O)[C@H](CO[C@@H]1O[C@H](CO)[C@@H](O[C@@H]2O[C@H](CO)[C@H](O)[C@H](O)[C@H]2O)[C@H](O)[C@H]1O)NC(=O)CCCCc1ccc2n1[B-](F)(F)[N+]1=C(C)C=C(C)C1=C2` [BODIPY-LacCer] here?
**A.** Its internalization route is “internalized via caveolae”.

**Q.** What about the “sensitivity of internalization to chlorpromazine (CPZ)” value (rat fibroblasts) of the same molecule?
**A.** The value was “not by chlorpromazine”.

**Q.** And the “sensitivity of internalization to nystatin” value (rat fibroblasts)?
**A.** The value was “substantially inhibited”.

**Q.** What about the “inhibition of endocytosis when delivered by ethanol injection vs. BSA complex” value (rat fibroblasts; ethanolic solution) of the same molecule?
**A.** The value was “virtually identical results”.

**Q.** And the “Inhibition of lipid analog endocytosis, Clathrin-dependent internalization, Chloropromazine” value (rat fibroblasts; internalization at 5 min)?
**A.** The value was 9.3 ± 1.7%.

**Q.** What about the “Inhibition of lipid analog endocytosis, Clathrin-dependent internalization, K+-depletion” value (rat fibroblasts; internalization at 5 min) of the same molecule?
**A.** Its value is 10.4 ± 1.3%.

**Q.** And the “Inhibition of lipid analog endocytosis, Clathrin-independent internalization, Genistein” value (rat fibroblasts; internalization at 5 min)?
**A.** The value was 73.9 ± 4.1%.

**Q.** And the “Inhibition of lipid analog endocytosis, Clathrin-independent internalization, Nystatin” value (rat fibroblasts; internalization at 5 min)?
**A.** The value was 75.1 ± 6.8%.

**Q.** With `CC(C)(C)n1nc(-c2ccc(Cl)cc2)c2c(N)ncnc21` [PP2] as the molecule, how does the “src activation induced by C8-DE-LacCer” value (src kinase; with src inhibitor) read?
**A.** Its value is “blocked”.

**Q.** With `CCCCCCCCCCCCC/C=C/[C@@H](O)[C@H](CO[C@@H]1O[C@H](CO)[C@@H](O[C@@H]2O[C@H](CO)[C@H](O)[C@H](O)[C@H]2O)[C@H](O)[C@H]1O)NC(=O)CCCCCCC` [C8-DE-LacCer] as the molecule, how does the “clustering of PM domains induced by labeled CtxB and crosslinking Ab” value [3] read?
**A.** The value was “No inhibition of domain formation was observed”.

**Q.** And the “SV40 infection monitored by expression of the large T antigen” value (SV40 virus [4])?
**A.** The value was “no effect”.

**Q.** And the “superoxide production by eosinophils” value (human eosinophils [5])?
**A.** The value was “A large quantity of superoxide was produced”.

**Q.** What about the adhesion of eosinophils (human eosinophils [6]) of the same molecule?
**A.** The adhesion of eosinophils was “induces adhesion of eosinophils to tissue culture wells”.

**Q.** What about the “src activation (phosphorylation at Y416), lipid alone” value (src kinase) of the same molecule?
**A.** The value was “activated (phosphorylated at Y416)”.

**Q.** What about the “src phosphorylation induced by β1-stim Ab” value (src kinase) of the same molecule?
**A.** Its value is “did not significantly affect src phosphorylation”.

**Q.** And the “uptake of caveolar markers (fluorescent albumin, β1-integrin Fab)” value [7]?
**A.** The value was “stimulated caveolar uptake”.

**Q.** And the “HUTS binding (β1-integrin activation), agent alone” value (β1-integrin)?
**A.** Its value is “activated β1-integrin”.

**Q.** And the “formation of PM domains in the absence of a crosslinking Ab” value [8]?
**A.** Its value is “induced the formation of large domains enriched in GM1 ganglioside and cholesterol”.

**Q.** What does the source list for `CCCCCCCCCCCCC/C=C/[C@H](O)[C@H](CO[C@@H]1O[C@H](CO)[C@@H](O[C@@H]2O[C@H](CO)[C@H](O)[C@H](O)[C@H]2O)[C@H](O)[C@H]1O)NC(=O)CCCCCCC` [C8-LT-LacCer, β-D-lactosyl-N-octanoyl-L-threo-sphingosine]?
**A.** clustering of PM domains induced by labeled CtxB and crosslinking Ab [3]: no clustering of PM domains was observed; SV40 induction of PM domains [9]: prevented the SV40 induction of these PM domains; SV40 infection monitored by expression of the large T antigen (SV40 virus [4]): dramatically reduced; src activation (phosphorylation at Y416), lipid alone (src kinase): little or no src activation; src phosphorylation induced by β1-stim Ab (src kinase): inhibited src phosphorylation; uptake of caveolar markers (fluorescent albumin, β1-integrin Fab) [7]: inhibited uptake of multiple caveolar markers; uptake of caveolar markers (fluorescent albumin, β1-integrin Fab) ([7]; listed as LT-isomer of C8-LacCer): selectively inhibiting caveolar endocytosis; HUTS binding (β1-integrin activation) induced by β1-stim Ab (β1-integrin; HSFs pretreated with lipid prior to β1-stim Ab): reduced HUTS binding to levels seen in untreated control cells; HUTS binding (β1-integrin activation), agent alone (β1-integrin): no increase in HUTS binding was seen; inhibition of SV40 binding to CV1 cells (SV40 virus [10]): about 80%
